Data: patent US9211310B2, “Use of a Chinese medicine composition in preparing medicaments for treating secondary prevention of myocardial infarction” (TASLY PHARMACEUTICAL GROUP CO., LTD, priority 2010, dated 2015)

Test system: patients after acute myocardial infarction
Experiment: TCM symptom score, total and single (chest pain, chest tightness, short breath, fatigue, palpitation, spontaneous perspiration, pale complexion), same clinical trial
Format: in vivo, human
Settings: for chest pain score 0, number of patients / chest pain score 0, percent of patients / chest pain score 3, number of patients / chest pain score 3, percent of patients / chest pain score 6, number of patients / chest pain score 6, percent of patients / chest pain score 9, number of patients / chest pain score 9, percent of patients / chest tightness score 0, number of patients / chest tightness score 0, percent of patients / chest tightness score 3, number of patients / chest tightness score 3, percent of patients / chest tightness score 6, number of patients / chest tightness score 6, percent of patients / chest tightness score 9, number of patients / chest tightness score 9, percent of patients: 12 months after treatment
Text: 3508 patients who were in accordance with the diagnostic standards of AMI for 28 days to 2 years and differentiated as Qi deficiency and blood stagnation syndrome by TCM were studied. 0.5 g Chinese medicine composition prepared by the method of EXAMPLE 1 (Coded as QSYQ) was administrated half an hour after meal, 3 times per day.
They included the overall survival time, angina pectoris score, TCM symptom score and life quality score, where angina pectoris score, TCM symptom score and life quality score were evaluated at randomization, in 1st, 3rd, 6th, 9th, 12th month after treatment and 18th month after follow-up.
The analysis method referred to the angina pectoris score.

[1] = 12 months after treatment-baseline, FAS
[2] = 12 months after treatment-baseline, PP
[3] = FAS, 12 months after treatment-treatment

## CC(=O)Oc1ccccc1C(=O)O [Control group, aspirine]
[1]
  change of chest tightness score 9, number of patients: 5
  change of chest tightness score 9, percent of patients: (0.29%)
  change of chest tightness score −3, number of patients: 83
  change of chest tightness score −3, percent of patients: (4.86%)
  change of chest tightness score −6, number of patients: 3
  change of chest tightness score −6, percent of patients: (0.18%)
  change of chest tightness score −9, number of patients: 0
  change of chest tightness score −9, percent of patients: (0.00%)
[2]
  change of chest pain score 0, number of patients: 760
  change of chest pain score 0, percent of patients: (54.36%)
  change of chest pain score 3, number of patients: 455
  change of chest pain score 3, percent of patients: (32.55%)
  change of chest pain score 6, number of patients: 131
  change of chest pain score 6, percent of patients: (9.37%)
  change of chest pain score 9, number of patients: 5
  change of chest pain score 9, percent of patients: (0.36%)
  change of chest pain score −3, number of patients: 45
  change of chest pain score −3, percent of patients: (3.22%)
  change of chest pain score −6, number of patients: 2
  change of chest pain score −6, percent of patients: (0.14%)
  change of chest tightness score 0, number of patients: 721
  change of chest tightness score 0, percent of patients: (51.54%)
  change of chest tightness score 3, number of patients: 539
  change of chest tightness score 3, percent of patients: (38.53%)
  change of chest tightness score 6, number of patients: 79
  change of chest tightness score 6, percent of patients: (5.65%)
  change of chest tightness score 9, number of patients: 4
  change of chest tightness score 9, percent of patients: (0.29%)
  change of chest tightness score −3, number of patients: 54
  change of chest tightness score −3, percent of patients: (3.86%)
  change of chest tightness score −6, number of patients: 2
  change of chest tightness score −6, percent of patients: (0.14%)
  change of chest tightness score −9, number of patients: 0
  change of chest tightness score −9, percent of patients: (0.00%)
FAS
  chest pain score 0, number of patients: 858
  chest pain score 0, percent of patients: (49.94%)
  chest pain score 3, number of patients: 607
  chest pain score 3, percent of patients: (35.33%)
  chest pain score 6, number of patients: 248
  chest pain score 6, percent of patients: (14.44%)
  chest pain score 9, number of patients: 5
  chest pain score 9, percent of patients: (0.29%)
  chest tightness score 0, number of patients: 858
  chest tightness score 0, percent of patients: (49.94%)
  chest tightness score 3, number of patients: 607
  chest tightness score 3, percent of patients: (35.33%)
  chest tightness score 6, number of patients: 248
  chest tightness score 6, percent of patients: (14.44%)
  chest tightness score 9, number of patients: 5
  chest tightness score 9, percent of patients: (0.29%)
PP
  chest pain score 0, number of patients: 725
  chest pain score 0, percent of patients: (51.67%)
  chest pain score 3, number of patients: 501
  chest pain score 3, percent of patients: (35.71%)
  chest pain score 6, number of patients: 176
  chest pain score 6, percent of patients: (12.54%)
  chest pain score 9, number of patients: 1
  chest pain score 9, percent of patients: (0.07%)
  chest tightness score 0, number of patients: 725
  chest tightness score 0, percent of patients: (51.67%)
  chest tightness score 3, number of patients: 501
  chest tightness score 3, percent of patients: (35.71%)
  chest tightness score 6, number of patients: 176
  chest tightness score 6, percent of patients: (12.54%)
  chest tightness score 9, number of patients: 1
  chest tightness score 9, percent of patients: (0.07%)
[3]
  change of short breath 0, % of patients: (55.85%)
  change of short breath 2, % of patients: (32.92%)
  change of short breath 2, number of patients: 563
  change of short breath 4, % of patients: (4.09%)
  change of short breath 4, number of patients: 70
  change of short breath 6, % of patients: (0.70%)
  change of short breath 6, number of patients: 12
  change of short breath −2, % of patients: (6.32%)
  change of short breath −2, number of patients: 108
  change of short breath −4, % of patients: (0.12%)
  change of short breath −4, number of patients: 2
FAS, 1 month after treatment
  distribution of total score of TCM symptom: Medium, number of patients: 675
  distribution of total score of TCM symptom: Medium, percentage of patients: (40.11%)
  distribution of total score of TCM symptom: Mild, number of patients: 989
  distribution of total score of TCM symptom: Mild, percentage of patients: (58.76%)
  distribution of total score of TCM symptom: Severe, number of patients: 19
  distribution of total score of TCM symptom: Severe, percentage of patients: (1.13%)
  fatigue score 0, % of patients: (24.05%)
  fatigue score 0, number of patients: 413
  fatigue score 2, % of patients: (60.75%)
  fatigue score 2, number of patients: 1043
  fatigue score 4, % of patients: (13.86%)
  fatigue score 4, number of patients: 238
  fatigue score 6, % of patients: (1.34%)
  fatigue score 6, number of patients: 23
  pale complexion score 0, number of patients: 713
  pale complexion score 0, percent of patients: (41.53%)
  pale complexion score 1, number of patients: 726
  pale complexion score 1, percent of patients: (42.28%)
  pale complexion score 2, number of patients: 245
  pale complexion score 2, percent of patients: (14.27%)
  pale complexion score 3, number of patients: 33
  pale complexion score 3, percent of patients: (1.92%)
  palpitation score 0, number of patients: 427
  palpitation score 0, percent of patients: (24.87%)
  palpitation score 1, number of patients: 1
  palpitation score 1, percent of patients: (0.06%)
  palpitation score 2, number of patients: 834
  palpitation score 2, percent of patients: (48.57%)
  palpitation score 4, number of patients: 398
  palpitation score 4, percent of patients: (23.18%)
  palpitation score 6, number of patients: 57
  palpitation score 6, percent of patients: (3.32%)
  short breath score 0, % of patients: (21.14%)
  short breath score 0, number of patients: 363
  short breath score 3, % of patients: (54.22%)
  short breath score 3, number of patients: 931
  short breath score 6, % of patients: (23.88%)
  short breath score 6, number of patients: 410
  short breath score 9, % of patients: (0.76%)
  short breath score 9, number of patients: 13
  spontaneous perspiration score 0, number of patients: 603
  spontaneous perspiration score 0, percent of patients: (35.12%)
  spontaneous perspiration score 1, number of patients: 879
  spontaneous perspiration score 1, percent of patients: (51.19%)
  spontaneous perspiration score 2, number of patients: 215
  spontaneous perspiration score 2, percent of patients: (12.52%)
  spontaneous perspiration score 3, number of patients: 20
